From PubChem BioAssay AID344 (DTP/NCI, 2004)
“And” between values parts separate entries of the source, which are not always exact repeats. Identical values can stand only once. Toxic doses and inconclusive results are not listed.

Tested on: mice, LPC-1 plasma cell tumor ip, median survival T/C
Assay: NCI In Vivo Anticancer Drug Screen. Data for tumor model Lieberman Plasma Cell No. 1 (LPC-1) (intraperitoneal) in unknown mice
Conditions: endpoint: median survival time, higher = longer survival
Description: The antitumor activity of compounds was measured in mice bearing transplantable tumors. Survival or tumor size were measured and the results are expressed as the measurement made in the treated group (T) divided by the measurement made in the vehicle treated control group (C). The tumor model used in this assay is Lieberman Plasma Cell No. 1 (LPC-1) (intraperitoneal) in unknown mice

[1] = dose: 65.0 mg/kg/injection, schedule: Q01DX028 (sc), vehicle: carboxymethylcellulose (CMC)
[2] = dose: 108.0 mg/kg/injection, schedule: Q01DX028 (sc), vehicle: carboxymethylcellulose (CMC)
[3] = dose: 125.0 mg/kg/injection, schedule: Q01DX028 (sc), vehicle: carboxymethylcellulose (CMC)
[4] = dose: 500.0 mg/kg/injection, schedule: Q01DX028 (sc), vehicle: carboxymethylcellulose (CMC)

O=NN(CCCl)C(=O)NCCCl
T/C (dose: 0.65 mg/kg/injection, schedule: Q01DX028 (sc), vehicle: saline): 109 % of control | T/C (dose: 1.08 mg/kg/injection, schedule: Q01DX028 (sc), vehicle: saline): 107 % of control | T/C (dose: 2.4 mg/kg/injection, schedule: Q01DX028 (sc), vehicle: saline): 157 % of control | T/C (dose: 3.0 mg/kg/injection, schedule: Q01DX028 (sc), vehicle: saline): 157 % of control and 185 % of control | T/C (dose: 5.0 mg/kg/injection, schedule: Q01DX028 (sc), vehicle: saline): 195 % of control and 202 % of control

CCC(CCC(C)C1CCC2C3CC=C4CC(OC(=O)CCC(=O)O)CCC4(C)C3CCC12C)C(C)C (stereo unspecified)
T/C (dose: 100.0 mg/kg/injection, schedule: Q01DX028 (sc), vehicle: water): 102 % of control | T/C (dose: 400.0 mg/kg/injection, schedule: Q01DX028 (sc), vehicle: water): 100 % of control

CO[C@H](C(=O)[C@@H](O)[C@@H](C)O)[C@@H]1Cc2cc3cc(OC4CC(OC5CC(O)C(O)C(C)O5)C(O)C(C)O4)c(C)c(O)c3c(O)c2C(=O)[C@H]1OC1CC(OC2CC(OC3CC(C)(O)C(O)C(C)O3)C(O)C(C)O2)C(O)C(C)O1 (stereo partly specified)
T/C (dose: 0.2 mg/kg/injection, schedule: Q01DX028 (sc), vehicle: saline): 100 % of control | T/C (dose: 0.4 mg/kg/injection, schedule: Q01DX028 (sc), vehicle: saline): 97 % of control

CCOC(=O)c1c[nH]c2ccc(N(CCCl)CCCl)cc12
T/C (dose: 23.0 mg/kg/injection, schedule: Q01DX028 (sc), vehicle: carboxymethylcellulose (CMC)): 112 % of control | T/C (dose: 39.0 mg/kg/injection, schedule: Q01DX028 (sc), vehicle: carboxymethylcellulose (CMC)): 110 % of control | T/C [1]: 89 % of control | T/C (dose: 108.0 mg/kg/injection, schedule: Q01DX015 (sc), vehicle: carboxymethylcellulose (CMC)): 97 % of control | T/C [2]: 87 % of control

OC(CBr)C(O)C(O)C(O)CBr (stereo unspecified)
T/C [3]: 94 % of control and 102 % of control and 100 % of control | T/C [4]: 89 % of control and 115 % of control

O=CN(O)CC(=O)O
T/C [1]: 93 % of control | T/C [2]: 90 % of control | T/C (dose: 180.0 mg/kg/injection, schedule: Q01DX028 (sc), vehicle: carboxymethylcellulose (CMC)): 90 % of control | T/C (dose: 300.0 mg/kg/injection, schedule: Q01DX028 (sc), vehicle: carboxymethylcellulose (CMC)): 93 % of control | T/C [4]: 95 % of control | T/C (dose: 833.0 mg/kg/injection, schedule: Q01DX028 (sc), vehicle: carboxymethylcellulose (CMC)): 95 % of control

NC(Cc1ccc(N(CCCl)CCCl)cc1)C(=O)O (stereo unspecified)
T/C (dose: 2.0 mg/kg/injection, schedule: Q01DX028 (sc), vehicle: methylcellulose (MC)): 180 % of control | T/C (dose: 4.0 mg/kg/injection, schedule: Q01DX028 (sc), vehicle: methylcellulose (MC)): 155 % of control | T/C (dose: 8.0 mg/kg/injection, schedule: Q01DX028 (sc), vehicle: methylcellulose (MC)): 108 % of control

Cc1c2c(c(C)c3c1OC(C)(C)CC3)OC(C)(C)CC2
T/C (dose: 50.0 mg/kg/injection, schedule: Q01DX009 (sc), vehicle: saline): 104 % of control | T/C (dose: 100.0 mg/kg/injection, schedule: Q01DX009 (sc), vehicle: saline): 97 % of control | T/C (dose: 200.0 mg/kg/injection, schedule: Q01DX009 (sc), vehicle: saline): 95 % of control | T/C (dose: 400.0 mg/kg/injection, schedule: Q01DX009 (sc), vehicle: saline): 90 % of control

CN(N=O)C(N)=O
T/C (dose: 8.4 mg/kg/injection, schedule: Q01DX028 (sc), vehicle: saline): 114 % of control | T/C (dose: 14.0 mg/kg/injection, schedule: Q01DX028 (sc), vehicle: saline): 150 % of control | T/C (dose: 39.0 mg/kg/injection, schedule: Q01DX028 (sc), vehicle: saline): 116 % of control | T/C (dose: 65.0 mg/kg/injection, schedule: Q01DX028 (sc), vehicle: saline): 100 % of control

NC(CSC(c1ccccc1)(c1ccccc1)c1ccccc1)C(=O)O (stereo unspecified)
T/C (dose: 7.5 mg/kg/injection, schedule: Q01DX028 (sc), vehicle: saline): 102 % of control | T/C (dose: 15.0 mg/kg/injection, schedule: Q01DX028 (sc), vehicle: saline): 105 % of control | T/C (dose: 60.0 mg/kg/injection, schedule: Q01DX028 (sc), vehicle: saline): 105 % of control

C/C(=N\N=C(N)N)c1ccc(NC(=O)Nc2ccc(/C(C)=N/N=C(N)N)cc2)cc1
T/C (dose: 10.0 mg/kg/injection, schedule: Q01DX028 (sc), vehicle: carboxymethylcellulose (CMC)): 94 % of control | T/C (dose: 20.0 mg/kg/injection, schedule: Q01DX028 (sc), vehicle: carboxymethylcellulose (CMC)): 102 % of control | T/C (dose: 40.0 mg/kg/injection, schedule: Q01DX028 (sc), vehicle: carboxymethylcellulose (CMC)): 105 % of control | T/C (dose: 80.0 mg/kg/injection, schedule: Q01DX028 (sc), vehicle: carboxymethylcellulose (CMC)): 100 % of control

O=c1ccc2ccc(O)cc2o1
T/C (dose: 266.0 mg/kg/injection, schedule: Q01DX028 (sc), vehicle: carboxymethylcellulose (CMC)): 102 % of control | T/C (dose: 400.0 mg/kg/injection, schedule: Q01DX028 (sc), vehicle: carboxymethylcellulose (CMC)): 97 % of control | T/C (dose: 600.0 mg/kg/injection, schedule: Q01DX028 (sc), vehicle: carboxymethylcellulose (CMC)): 97 % of control

NC(Cc1c[nH]c2ccc(N(CCCl)CCCl)cc12)C(=O)O (stereo unspecified)
T/C (dose: 0.23 mg/kg/injection, schedule: Q01DX028 (sc), vehicle: acid diluted with saline): 235 % of control | T/C (dose: 0.39 mg/kg/injection, schedule: Q01DX028 (sc), vehicle: acid diluted with saline): 276 % of control | T/C (dose: 0.39 mg/kg/injection, schedule: Q01DX028 (sc), vehicle: other): 285 % of control | T/C (dose: 0.65 mg/kg/injection, schedule: Q01DX028 (sc), vehicle: acid diluted with saline): 230 % of control | T/C (dose: 0.65 mg/kg/injection, schedule: Q01DX028 (sc), vehicle: methylcellulose (MC)): 164 % of control | T/C (dose: 0.65 mg/kg/injection, schedule: Q01DX028 (sc), vehicle: other): 380 % of control | T/C (dose: 1.08 mg/kg/injection, schedule: Q01DX028 (sc), vehicle: methylcellulose (MC)): 119 % of control | T/C (dose: 1.08 mg/kg/injection, schedule: Q01DX028 (sc), vehicle: other): 157 % of control | T/C (dose: 1.8 mg/kg/injection, schedule: Q01DX028 (sc), vehicle: acid diluted with saline): 107 % of control | T/C (dose: 1.8 mg/kg/injection, schedule: Q01DX028 (sc), vehicle: other): 114 % of control | T/C (dose: 3.0 mg/kg/injection, schedule: Q01DX028 (sc), vehicle: acid diluted with saline): 97 % of control | T/C (dose: 3.0 mg/kg/injection, schedule: Q01DX028 (sc), vehicle: other): 102 % of control

NC(=O)c1ccc(N)nc1
T/C (dose: 0.16 mg/kg/injection, schedule: Q01DX028 (sc), vehicle: water): 100 % of control | T/C (dose: 0.32 mg/kg/injection, schedule: Q01DX028 (sc), vehicle: water): 97 % of control | T/C (dose: 0.65 mg/kg/injection, schedule: Q01DX028 (sc), vehicle: water): 95 % of control | T/C (dose: 1.25 mg/kg/injection, schedule: Q01DX028 (sc), vehicle: water): 97 % of control | T/C (dose: 2.5 mg/kg/injection, schedule: Q01DX028 (sc), vehicle: water): 100 % of control | T/C (dose: 5.0 mg/kg/injection, schedule: Q01DX028 (sc), vehicle: water): 107 % of control

CCN(CC)CCNc1ccc(C)c2sc3ccccc3c(=O)c12 (tested in a mixture with another compound)
T/C (dose: 48.0 mg/kg/injection, schedule: Q01DX028 (sc), vehicle: saline): 221 % of control | T/C (dose: 69.0 mg/kg/injection, schedule: Q01DX028 (sc), vehicle: saline): 231 % of control | T/C (dose: 98.0 mg/kg/injection, schedule: Q01DX028 (sc), vehicle: saline): 165 % of control | T/C (dose: 140.0 mg/kg/injection, schedule: Q01DX028 (sc), vehicle: saline): 173 % of control

CC1(C)CC2(CC(C)(C)Oc3cc(O)ccc32)c2ccc(O)cc2O1
T/C (dose: 50.0 mg/kg/injection, schedule: Q01DX008 (sc), vehicle: saline): 100 % of control | T/C (dose: 100.0 mg/kg/injection, schedule: Q01DX008 (sc), vehicle: saline): 97 % of control | T/C (dose: 200.0 mg/kg/injection, schedule: Q01DX008 (sc), vehicle: saline): 97 % of control | T/C (dose: 400.0 mg/kg/injection, schedule: Q01DX008 (sc), vehicle: saline): 92 % of control

COc1cc2oc(=O)ccc2cc1C(=O)CC(C)C
T/C [3]: 102 % of control | T/C (dose: 250.0 mg/kg/injection, schedule: Q01DX028 (sc), vehicle: carboxymethylcellulose (CMC)): 100 % of control | T/C [4]: 100 % of control

CN(C)c1nc(N(C)C)nc(N(C)C)n1
T/C (dose: 50.0 mg/kg/injection, schedule: Q01DX009 (ip), vehicle: olive oil, sesame oil, peanut oil): 92 % of control | T/C (dose: 100.0 mg/kg/injection, schedule: Q01DX009 (ip), vehicle: other): 122 % of control | T/C (dose: 200.0 mg/kg/injection, schedule: Q01DX009 (ip), vehicle: other): 110 % of control | T/C (dose: 400.0 mg/kg/injection, schedule: Q01DX009 (ip), vehicle: other): 106 % of control
